# Tests used:
# Experiment in all cases: biochemical
# Type in all cases: biochemical
# [1] = biological target: 363 human kinases (including Aurora A/B/C) (Homo sapiens, UniProt P54764); settings: EPHA4, [ATP] 30 µM; for remaining activity at 0.1 µM: 100 nM; for remaining activity at 0.1 µM / remaining activity at 0.5 µM: read-out: % Enzyme Activity (relative to DMSO controls)
# Excerpt: (§1) However, the Aurora A/B selectivity ratios derived from our in vitro and in vivo data can be compared to prioritize inhibitors.
# [2] = biological target: T1, 363 human kinases (including Aurora A/B/C) (Homo sapiens, UniProt Q96PF2); settings: TSSK2; for remaining activity at 0.1 µM: 100 nM; for remaining activity at 0.1 µM / remaining activity at 0.5 µM: read-out: % Enzyme Activity (relative to DMSO controls)
# T1 sequence (Q96PF2 1-358): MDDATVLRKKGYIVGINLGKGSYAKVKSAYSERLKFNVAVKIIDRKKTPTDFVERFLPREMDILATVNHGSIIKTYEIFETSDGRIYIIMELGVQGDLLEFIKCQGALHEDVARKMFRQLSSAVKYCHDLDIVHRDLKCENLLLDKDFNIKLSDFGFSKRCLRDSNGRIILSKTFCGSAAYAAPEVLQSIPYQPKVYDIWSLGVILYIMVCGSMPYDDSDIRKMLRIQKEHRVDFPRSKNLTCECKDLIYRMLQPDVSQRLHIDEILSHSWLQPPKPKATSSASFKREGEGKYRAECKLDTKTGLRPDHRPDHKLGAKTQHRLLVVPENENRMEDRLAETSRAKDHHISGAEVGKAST
# Excerpt: as §1
# [3] = biological target: 363 human kinases (including Aurora A/B/C) (Homo sapiens, UniProt P51617); settings: IRAK1; for remaining activity at 0.1 µM: 100 nM; for remaining activity at 0.1 µM / remaining activity at 0.5 µM: read-out: % Enzyme Activity (relative to DMSO controls)
# 363 human kinases (including Aurora A/B/C) (Homo sapiens, UniProt P51617), sequence (P51617 whole entry): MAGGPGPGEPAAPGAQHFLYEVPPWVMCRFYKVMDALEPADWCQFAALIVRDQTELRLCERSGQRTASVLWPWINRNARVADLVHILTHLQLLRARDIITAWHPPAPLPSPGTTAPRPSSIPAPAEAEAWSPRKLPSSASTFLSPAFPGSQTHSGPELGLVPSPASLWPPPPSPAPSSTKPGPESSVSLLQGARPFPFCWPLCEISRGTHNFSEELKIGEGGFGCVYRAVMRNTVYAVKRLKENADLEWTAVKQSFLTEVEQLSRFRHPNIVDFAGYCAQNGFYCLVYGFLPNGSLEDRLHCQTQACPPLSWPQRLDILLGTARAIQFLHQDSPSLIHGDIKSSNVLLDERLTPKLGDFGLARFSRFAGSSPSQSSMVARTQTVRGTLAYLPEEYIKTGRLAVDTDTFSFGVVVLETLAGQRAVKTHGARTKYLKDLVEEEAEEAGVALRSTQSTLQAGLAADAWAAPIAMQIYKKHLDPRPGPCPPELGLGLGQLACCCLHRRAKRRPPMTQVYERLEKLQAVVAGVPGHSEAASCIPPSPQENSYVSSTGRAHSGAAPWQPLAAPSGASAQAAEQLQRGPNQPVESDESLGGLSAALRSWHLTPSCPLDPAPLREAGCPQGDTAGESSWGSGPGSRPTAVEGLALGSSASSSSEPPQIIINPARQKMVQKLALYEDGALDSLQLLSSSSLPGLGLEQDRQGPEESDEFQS
# Excerpt: as §1
# [4] = biological target: T2, 363 human kinases (including Aurora A/B/C) (Homo sapiens, UniProt Q7L7X3); settings: TAOK1; for remaining activity at 0.1 µM: 100 nM; for remaining activity at 0.1 µM / remaining activity at 0.5 µM: read-out: % Enzyme Activity (relative to DMSO controls)
# T2 sequence (Q7L7X3 1-1001): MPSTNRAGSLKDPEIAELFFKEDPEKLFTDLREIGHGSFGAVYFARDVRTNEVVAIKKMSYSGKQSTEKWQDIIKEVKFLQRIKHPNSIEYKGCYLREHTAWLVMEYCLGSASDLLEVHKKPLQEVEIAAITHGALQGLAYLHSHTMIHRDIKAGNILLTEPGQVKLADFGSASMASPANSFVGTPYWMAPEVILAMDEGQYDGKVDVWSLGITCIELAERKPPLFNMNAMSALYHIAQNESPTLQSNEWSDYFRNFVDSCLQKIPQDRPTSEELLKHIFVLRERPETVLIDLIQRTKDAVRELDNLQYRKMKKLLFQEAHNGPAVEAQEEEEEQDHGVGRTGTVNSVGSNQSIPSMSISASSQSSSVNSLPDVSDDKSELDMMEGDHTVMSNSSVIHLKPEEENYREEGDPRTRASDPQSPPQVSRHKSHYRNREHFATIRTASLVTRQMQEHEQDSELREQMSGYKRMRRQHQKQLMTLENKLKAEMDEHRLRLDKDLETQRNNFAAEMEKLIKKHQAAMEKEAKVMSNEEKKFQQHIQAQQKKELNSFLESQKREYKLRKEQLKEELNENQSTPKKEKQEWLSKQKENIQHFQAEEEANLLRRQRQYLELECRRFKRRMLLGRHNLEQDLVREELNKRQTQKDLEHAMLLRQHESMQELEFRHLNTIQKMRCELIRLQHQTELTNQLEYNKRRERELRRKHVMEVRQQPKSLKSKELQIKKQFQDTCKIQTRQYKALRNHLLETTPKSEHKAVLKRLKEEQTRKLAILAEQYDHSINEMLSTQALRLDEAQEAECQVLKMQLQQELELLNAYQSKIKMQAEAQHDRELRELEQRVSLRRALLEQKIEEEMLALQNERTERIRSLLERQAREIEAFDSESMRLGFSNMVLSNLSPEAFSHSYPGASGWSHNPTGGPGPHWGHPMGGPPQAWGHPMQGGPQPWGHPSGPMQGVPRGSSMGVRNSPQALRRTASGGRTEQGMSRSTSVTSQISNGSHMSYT
# Excerpt: as §1
# [5] = biological target: T3, 363 human kinases (including Aurora A/B/C) (Homo sapiens, UniProt O95382); settings: MEKK6; for remaining activity at 0.1 µM: 100 nM; for remaining activity at 0.1 µM / remaining activity at 0.5 µM: read-out: % Enzyme Activity (relative to DMSO controls)
# T3 sequence (O95382 1-1288): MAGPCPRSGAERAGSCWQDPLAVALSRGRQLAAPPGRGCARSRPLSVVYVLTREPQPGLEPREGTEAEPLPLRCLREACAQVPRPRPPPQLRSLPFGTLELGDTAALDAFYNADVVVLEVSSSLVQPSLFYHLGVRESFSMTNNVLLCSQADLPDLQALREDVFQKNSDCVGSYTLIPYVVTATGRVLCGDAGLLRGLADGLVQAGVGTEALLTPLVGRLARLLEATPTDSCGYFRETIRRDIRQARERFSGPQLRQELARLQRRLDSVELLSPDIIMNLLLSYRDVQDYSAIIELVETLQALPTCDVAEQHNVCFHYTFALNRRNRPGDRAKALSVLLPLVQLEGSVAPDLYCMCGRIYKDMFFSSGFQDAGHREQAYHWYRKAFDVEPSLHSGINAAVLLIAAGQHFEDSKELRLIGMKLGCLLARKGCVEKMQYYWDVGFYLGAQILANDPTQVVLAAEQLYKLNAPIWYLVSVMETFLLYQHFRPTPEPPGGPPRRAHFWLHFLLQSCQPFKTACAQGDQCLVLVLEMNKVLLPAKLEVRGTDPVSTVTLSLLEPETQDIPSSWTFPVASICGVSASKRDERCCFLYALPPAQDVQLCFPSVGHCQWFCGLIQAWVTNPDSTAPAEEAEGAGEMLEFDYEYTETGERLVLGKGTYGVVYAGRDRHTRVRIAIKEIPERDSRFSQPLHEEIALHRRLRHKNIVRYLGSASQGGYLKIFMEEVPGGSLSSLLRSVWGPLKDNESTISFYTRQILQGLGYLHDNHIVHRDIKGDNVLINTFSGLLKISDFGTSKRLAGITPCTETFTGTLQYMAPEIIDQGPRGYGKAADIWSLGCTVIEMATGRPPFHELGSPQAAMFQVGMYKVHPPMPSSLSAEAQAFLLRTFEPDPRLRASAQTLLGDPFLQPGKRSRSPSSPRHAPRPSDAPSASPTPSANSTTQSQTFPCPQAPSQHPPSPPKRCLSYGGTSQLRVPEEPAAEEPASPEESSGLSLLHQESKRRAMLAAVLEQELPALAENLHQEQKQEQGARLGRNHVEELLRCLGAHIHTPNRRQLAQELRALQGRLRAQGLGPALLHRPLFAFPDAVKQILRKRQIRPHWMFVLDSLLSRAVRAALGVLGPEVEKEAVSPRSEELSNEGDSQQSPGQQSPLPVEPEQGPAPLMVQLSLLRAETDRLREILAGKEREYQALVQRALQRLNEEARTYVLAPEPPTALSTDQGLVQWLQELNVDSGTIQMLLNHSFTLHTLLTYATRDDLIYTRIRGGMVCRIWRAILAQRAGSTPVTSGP
# Excerpt: as §1
# [6] = biological target: 363 human kinases (including Aurora A/B/C) (Homo sapiens, UniProt Q86UX6); settings: STK32C/YANK3; for remaining activity at 0.1 µM: 100 nM; for remaining activity at 0.1 µM / remaining activity at 0.5 µM: read-out: % Enzyme Activity (relative to DMSO controls)
# 363 human kinases (including Aurora A/B/C) (Homo sapiens, UniProt Q86UX6), sequence (Q86UX6 whole entry): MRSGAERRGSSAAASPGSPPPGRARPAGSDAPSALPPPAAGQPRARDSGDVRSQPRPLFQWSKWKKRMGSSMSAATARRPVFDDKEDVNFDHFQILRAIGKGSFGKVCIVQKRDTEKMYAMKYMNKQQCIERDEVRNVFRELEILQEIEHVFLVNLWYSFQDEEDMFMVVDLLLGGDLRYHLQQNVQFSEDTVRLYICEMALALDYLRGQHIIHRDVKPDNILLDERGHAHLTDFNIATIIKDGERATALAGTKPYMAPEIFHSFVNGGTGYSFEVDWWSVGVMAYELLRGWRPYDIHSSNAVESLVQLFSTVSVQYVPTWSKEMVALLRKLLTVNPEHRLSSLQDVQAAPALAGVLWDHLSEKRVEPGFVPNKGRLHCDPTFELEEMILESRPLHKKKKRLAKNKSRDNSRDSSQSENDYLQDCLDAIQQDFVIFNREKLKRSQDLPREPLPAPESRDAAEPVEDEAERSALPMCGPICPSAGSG
# Excerpt: as §1
# 363 human kinases (including Aurora A/B/C) (Homo sapiens, UniProt P54764), sequence (P54764 20-986): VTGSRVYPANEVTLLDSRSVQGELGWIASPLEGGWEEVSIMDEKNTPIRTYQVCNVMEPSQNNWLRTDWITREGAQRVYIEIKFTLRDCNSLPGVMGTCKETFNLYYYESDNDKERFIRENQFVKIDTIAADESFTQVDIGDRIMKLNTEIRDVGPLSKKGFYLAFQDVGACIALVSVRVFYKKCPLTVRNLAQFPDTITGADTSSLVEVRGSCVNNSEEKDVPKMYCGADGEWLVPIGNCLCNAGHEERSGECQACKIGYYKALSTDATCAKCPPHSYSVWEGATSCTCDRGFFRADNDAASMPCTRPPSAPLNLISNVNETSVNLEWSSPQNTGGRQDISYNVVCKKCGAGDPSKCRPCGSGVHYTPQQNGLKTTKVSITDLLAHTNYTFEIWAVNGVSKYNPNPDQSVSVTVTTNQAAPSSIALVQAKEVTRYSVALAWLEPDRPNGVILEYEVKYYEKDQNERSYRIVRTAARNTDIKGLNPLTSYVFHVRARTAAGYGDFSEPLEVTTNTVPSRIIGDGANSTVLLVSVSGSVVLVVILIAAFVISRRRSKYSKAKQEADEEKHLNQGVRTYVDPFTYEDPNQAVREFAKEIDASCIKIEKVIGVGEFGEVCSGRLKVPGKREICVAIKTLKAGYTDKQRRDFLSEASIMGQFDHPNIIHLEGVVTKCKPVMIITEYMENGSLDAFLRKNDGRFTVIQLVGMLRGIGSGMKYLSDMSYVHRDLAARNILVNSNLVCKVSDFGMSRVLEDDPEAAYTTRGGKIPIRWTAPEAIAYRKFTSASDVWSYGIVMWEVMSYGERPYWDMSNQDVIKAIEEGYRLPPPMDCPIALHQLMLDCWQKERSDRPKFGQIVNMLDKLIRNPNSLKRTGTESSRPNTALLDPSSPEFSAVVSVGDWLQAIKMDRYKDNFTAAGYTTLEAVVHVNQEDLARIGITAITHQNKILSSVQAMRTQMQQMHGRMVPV
Compound,remaining activity at 0.1 µM [1],remaining activity at 0.1 µM [2],remaining activity at 0.1 µM [3],remaining activity at 0.1 µM [4],remaining activity at 0.1 µM [5],remaining activity at 0.1 µM [6],remaining activity at 0.5 µM ([1]; 500 nM),remaining activity at 0.5 µM ([2]; 500 nM),remaining activity at 0.5 µM ([3]; 500 nM),remaining activity at 0.5 µM ([4]; 500 nM),remaining activity at 0.5 µM ([5]; 500 nM),remaining activity at 0.5 µM ([6]; 500 nM),% Enzyme Activity (relative to DMSO controls) ([1]; 500 nM),% Enzyme Activity (relative to DMSO controls) ([2]; 500 nM),% Enzyme Activity (relative to DMSO controls) ([3]; 500 nM),% Enzyme Activity (relative to DMSO controls) ([4]; 500 nM),% Enzyme Activity (relative to DMSO controls) ([5]; 500 nM),% Enzyme Activity (relative to DMSO controls) ([6]; 500 nM)
CCn1cc(-c2ccnc3[nH]c(-c4cccc(CN(C)C)c4)cc23)c(-c2ccc(NC(=O)N(C)C)cc2)n1 [GSK1070916],100%,99.9%,122%,96%,94.5%,79.9%,,,,,,,,,,,,
O=C(O)[C@]1(Cc2cccc(Nc3nccs3)n2)CC[C@@H](Oc2cccc(Cl)c2F)CC1 [MK-5108],50.2%,103%,5.35%,89.5%,99.6%,124%,21.2%,91.5%,1.01%,70.3%,97.4%,96.6%,,,,,,
O=C(c1cccc(Cl)c1F)N1CCN(Cc2cccc(Nc3nccs3)n2)CC1 [MK-8745],,,,,,,87.2%,94.7%,19%,89.7%,87.7%,81.5%,87.10%,93.76%,18.29%,88.72%,83.68%,79.77%

# Reference: paper PMC4685510, “A Cell Biologist’s Field Guide to Aurora Kinase Inhibitors” (Frontiers in Oncology, 2015)
